Among the data in US8765946B2, “Methods of preparing and using quinazoline and quinoline derivatives” (priority 2006, dated 2014) are EC50 and inhibition values, retold here.

Structures are written as SMILES. pEC50: −log10 of the molar value.

The test system of one assay is A431 cells. The experiment in a line: A431 cell growth inhibition assay (MTT assay). Type of assay: cell-based. The conditions noted are these: Homo sapiens; for pEC50: A-431, 72 hours (Table 11); for inhibition at 3 µM: A-431, concentration of 3 μM, 72 hours, read-out: Inhibition Percent (%). The procedure: A431 Cell Growth Inhibition Assay (MTT Assay)
A431, an epidermoid carcinoma cell line; The Cell Bank, Committee on Type Culture Collection Chinese Academy of Science, Shanghai.
Mix prepared medium DMEM and F12 in the proportion of 1:1, then add FBS to a final concentration of 10%.
Dissolved the dried compound sample with 100% DMSO to 2 mM. Then diluted the dissolved compound to 20 μM with cell complete growth medium.
Prior to the assay, cultured the A431 to logarithmic phase, and then removed medium from cell monolayers and wash the cells once with sterilized PBS. Aspriated the PBS and added 2 mL trypsin solution to cover the cell growth surface, removed 1 mL trypsin solution after soaking about 1 minute. Transferred the cell-culture plate to CO2 incubator; incubated at 37° C. for 8 minutes to allow cells to dissociate. After the cells detached, added 4 mL complete growth medium containing FBS with pipette to disperse them off and mixed gently to obtain a homogeneous cell suspension. Aspirated some of the cell suspension to a sterilized polypropylene tube, and determined the cell concentration by counting in a hematocytometer chamber under a microscope. Adjusted the cell concentration with growth medium to obtain 2.5×10^4 cells per milliliter.
Added 100 μL adjusted cell suspension to the 96-well cell-culture plate and occasionally mixed the cell suspension during the seeding process. After seeding cells, incubated the plate at 37° C. overnight with 5% CO2 in the CO2 incubator for cell attachment.
After the cell attachment, added 100 μL prepared compound solutions to the corresponding wells (add PBS to the ambient wells of the plate). The final compound concentrations ranged from 10 μM to 1.52 nM. Incubated the plate at 37° C. with 5% CO2 for 72 hours in the CO2 incubator.
After the exposure to the compound, removed the cell culture supernatant. Then added 100 μL 0.5 mg/mL MTT solution which dissolved in the growth medium without FBS. Incubated the plate at 37° C. with 5% CO2 for another 4 hours to allow the MTT reaction to proceed.
After the MTT reaction, discarded the MTT reaction solution. Added 100 μL DMSO to each well, and the plate was agitated on the plate shaker for several minutes to dissolve the formazan. Then, detected the absorbance at 490 nm using microplate reader.

In another assay the test system is BT474 cells. Briefly: BT-474 cell growth inhibition assay (SRB assay). Type of assay: cell-based. The conditions noted are these: Homo sapiens, concentration of 3 μM, 72 h, read-out: Inhibition Percent (%). How it is done: BT-474 Cell Growth Inhibition Assay (SRB Assay)
BT-474 human breast cancer cell lines were kindly provided by Dr. Changnian Liu, Pharmaron Beijing Co., Ltd.
BT-474 cells were cultured in 37° C., 5% CO2, saturated humidity until logarithmic phase. Discarded culture medium, washed cells once by PBS. Added 1 ml Trypsin/EDTA solution, stood at 37° C. for 5 min, allowed the cells to detach. Added culture medium, adjusted the cells density to 1×10^5 cells/ml.
Day 0, added 100 μl/well cells suspension to 96-well cell culture plates. Incubated overnight to let the cells attach completely.
Day 1, compounds (2 mM in DMSO as stock solution) was diluted to 20 μM in EMEM. Then a fourfold serial dilution was made. These diluted compounds were made as 10× reaction solutions, and the concentration of DMSO was kept at 1%.
Added 80 μl culture medium and 20 μl 10× compound reaction solution to the testing wells, or vehicle control to the control wells. Co-incubated cells with compounds for another 72 h.
Day 3, fixed cellular protein by the addition of 100 μl/well of 10% TCA (diluting from 50% TCA) at 4° C. for 1 h. Rinsed TCA using plate washer, and washed five times using distilled water. Removed the residual wash solution with a piece of absorbent paper. Added 100 μl/well 0.4% SRB solution, allowed a 15-30 min staining period. Removed the SRB, and washed the culture plates five times using 1% acetic acid. Removed the residual wash solution with a piece of absorbent paper. Air-dried the culture plates, dissolved the protein-bound dye with 100 μl/well of 10 mM Tris base solution. Shook the plates until the dye was dissolved completely.
In general terms: In SRB staining, fixed cells bind dye roughly in proportion to their protein.

As a reminder, the pEC50 is the EC50 on a negative log10 scale, so that one unit is a factor of ten. Low readings indicate a large EC50, high ones a small EC50. A word on the inhibition: it is how much of the control response was suppressed.

With `CCOc1cc2ncc(C#N)c(Nc3ccc(OCc4cccc(F)c4)c(Cl)c3)c2cc1NC(=O)C=C1CCNCC1` [Example 145, N-(4-(4-(3-fluorobenzyloxy)-3-chlorophenylamino)-3-cyano-7-ethoxyquinolin-6-yl)-2-(piperidin-4-ylidene)acetamide], in the assay on A431 cells, the pEC50 is 5.47 and the inhibition at 3 µM was determined as 49%. Besides, the inhibition at 3 µM in the assay with BT474 cells came to 80%.
Turning to `COc1cc2ncc(C#N)c(Nc3ccc(Oc4cccc(F)c4)c(Cl)c3)c2cc1NC(=O)C=C1CCNCC1` [Example 146, N-(4-(3-chloro-4-(3-fluorophenoxy)phenylamino)-3-cyano-7-methoxyquinolin-6-yl)-2-(piperidin-4-ylidene)acetamide], the results for the inhibition at 3 µM in the assay on A431 cells and in the assay on BT474 cells were 52% and 85%, respectively.
For `COCCOc1cc2ncc(C#N)c(Nc3ccc(F)c(Cl)c3)c2cc1NC(=O)C=C1CCNCC1` [Example 149, N-(4-(3-chloro-4-fluorophenylamino)-3-cyano-7-(2-methoxyethoxy)quinolin-6-yl)-2-(piperidin-4-ylidene)acetamide], in that order: 92% and 53%.
For `C#Cc1cccc(Nc2c(C#N)cnc3cc(OCC)c(NC(=O)C=C4CCNCC4)cc23)c1` [Example 152, N-(3-cyano-7-ethoxy-4-(3-ethynylphenylamino)quinolin-6-yl)-2-(piperidin-4-ylidene)acetamide], in the assay with A431 cells, the pEC50 is 6.85 and the inhibition at 3 µM is 95%. Further, the inhibition at 3 µM with BT474 cells was determined as 59%.
For `COc1cc2ncc(C#N)c(Nc3cccc(Br)c3)c2cc1NC(=O)C=C1CCNCC1` [Example 155, N-(4-(3-bromophenylamino)-3-cyano-7-methoxyquinolin-6-yl)-2-(piperidin-4-ylidene)acetamide], the inhibition at 3 µM in the assay on A431 cells was 90%; in the assay on BT474 cells, 58%.
As for `CCOc1cc2ncc(C#N)c(Nc3ccc(F)c(Cl)c3)c2cc1NC(=O)C=C1CCN(C)CC1` [Example 156, N-(4-(3-chloro-4-fluorophenylamino)-3-cyano-7-ethoxyquinolin-6-yl)-2-(1-methylpiperidin-4-ylidene)acetamide], the inhibition at 3 µM in the assay on A431 cells amounted to 89%; with BT474 cells it was 60%.
As to `CCOc1cc2ncc(C#N)c(Nc3ccc(F)c(Cl)c3)c2cc1NC(=O)C=C1CCN(CCOC)CC1` [Example 157, N-(4-(3-chloro-4-fluorophenylamino)-3-cyano-7-ethoxyquinolin-6-yl)-2-(1-(2-methoxyethyl)piperidin-4-ylidene)acetamide], the figures for the inhibition at 3 µM in the assay with A431 cells and in the assay on BT474 cells were 85% and 59%, respectively.
As to `C#Cc1cccc(Nc2c(C#N)cnc3cc(OCC)c(NC(=O)C=C4CCN(C)CC4)cc23)c1` [Example 158, N-(3-cyano-7-ethoxy-4-(3-ethynylphenylamino)quinolin-6-yl)-2-(1-methylpiperidin-4-ylidene)acetamide], the figures for the inhibition at 3 µM in the assay with A431 cells and with BT474 cells were 90% and 57%, respectively.
For `C#Cc1cccc(Nc2c(C#N)cnc3cc(OCC)c(NC(=O)C=C4CCN(CCOC)CC4)cc23)c1` [Example 159, N-(3-cyano-7-ethoxy-4-(3-ethynylphenylamino)quinolin-6-yl)-2-(1-(2-methoxyethyl)piperidin-4-ylidene)acetamide], in that order: 83% and 53%.
For `CCOc1cc2ncc(C#N)c(Nc3ccc(OCc4ccccn4)c(Cl)c3)c2cc1NC(=O)C=C1CCN(CCOC)CC1` [Example 161, N-(4-(3-chloro-4-(pyridin-2-ylmethoxy)phenylamino)-3-cyano-7-ethoxyquinolin-6-yl)-2-(1-(2-methoxyethyl)piperidin-4-ylidene)acetamide], the inhibition at 3 µM in the assay with A431 cells was 49%; in the assay on BT474 cells, 90%.
As for `CCOc1cc2ncc(C#N)c(Nc3ccc(OCc4cccc(F)c4)c(Cl)c3)c2cc1NC(=O)C=C1CCN(C)CC1` [Example 162, N-(4-(4-(3-fluorobenzyloxy)-3-chlorophenylamino)-3-cyano-7-ethoxyquinolin-6-yl)-2-(1-methylpiperidin-4-ylidene)acetamide], the inhibition at 3 µM is 41% in the assay with A431 cells and 91% in the assay on BT474 cells.
For `CCOc1cc2ncc(C#N)c(Nc3ccc(OCc4cccc(F)c4)c(Cl)c3)c2cc1NC(=O)C=C1CCN(CCOC)CC1` [Example 163, N-(4-(4-(3-fluorobenzyloxy)-3-chlorophenylamino)-3-cyano-7-ethoxyquinolin-6-yl)-2-(1-(2-methoxyethyl)piperidin-4-ylidene)acetamide], in that order: 40% and 87%.
For `COCCOc1cc2ncc(C#N)c(Nc3ccc(OCc4ccccn4)c(Cl)c3)c2cc1NC(=O)C=C1CCNCC1` [Example 165, N-(4-(3-chloro-4-(pyridin-2-ylmethoxy)phenylamino)-3-cyano-7-(2-methoxyethoxy)quinolin-6-yl)-2-(piperidin-4-ylidene)acetamide], in that order: 53% and 87%.
For `N#Cc1cnc2ccc(NC(=O)C=C3CCNCC3)cc2c1Nc1ccc(OCc2ccccn2)c(Cl)c1` [Example 166, N-(4-(3-chloro-4-(pyridin-2-ylmethoxy)phenylamino)-3-cyanoquinolin-6-yl)-2-(ppiperidin-4-ylidene)acetamide], in that order: 49% and 85%.
For the compound `COCCOc1cc2ncc(C#N)c(Nc3ccc(OCc4cccc(F)c4)c(Cl)c3)c2cc1NC(=O)C=C1CCNCC1` [Example 167, N-(4-(4-(3-fluorobenzyloxy)-3-chlorophenylamino)-3-cyano-7-(2-methoxyethoxy)quinolin-6-yl)-2-(piperidin-4-ylidene)acetamide], the figures for the inhibition at 3 µM in the assay on A431 cells and in the assay with BT474 cells were 45% and 84%, respectively.
For `N#Cc1cnc2ccc(NC(=O)C=C3CCNCC3)cc2c1Nc1ccc(OCc2cccc(F)c2)c(Cl)c1` [Example 168, N-(4-(4-(3-fluorobenzyloxy)-3-chlorophenylamino)-3-cyanoquinolin-6-yl)-2-(piperidin-4-ylidene)acetamide], in that order: 41% and 89%.
For `C#Cc1cccc(Nc2c(C#N)cnc3cc(OCCOC)c(NC(=O)C=C4CCNCC4)cc23)c1` [Example 169, N-(3-cyano-4-(3-ethynylphenylamino)-7-(2-methoxyethoxy)quinolin-6-yl)-2-(piperidin-4-ylidene)acetamide], in that order: 92% and 58%.
For `C#Cc1cccc(Nc2c(C#N)cnc3ccc(NC(=O)C=C4CCNCC4)cc23)c1` [Example 170, N-(3-cyano-4-(3-ethynylphenylamino)quinolin-6-yl)-2-(piperidin-4-ylidene)acetamide], in that order: 88% and 56%.
As to `COCCOc1cc2ncc(C#N)c(Nc3cccc(Br)c3)c2cc1NC(=O)C=C1CCNCC1` [Example 171, N-(4-(3-bromophenylamino)-3-cyano-7-(2-methoxyethoxy)quinolin-6-yl)-2-(piperidin-4-ylidene)acetamide], the inhibition at 3 µM in the assay on A431 cells worked out at 86%; in the assay with BT474 cells it was 60%.
For `N#Cc1cnc2ccc(NC(=O)C=C3CCNCC3)cc2c1Nc1cccc(Br)c1` [Example 172, N-(4-(3-bromophenylamino)-3-cyanoquinolin-6-yl)-2-(piperidin-4-ylidene)acetamide], in that order: 84% and 61%.
